Reference: US20080167297A1, “Pyrimidine Derivatives for Use as Anticancer Agents” (ASTRAZENECA AB, priority 2005, published 2008)

Test system: murine fibroblasts (NIH3T3) over-expressing human IGF-1 receptor
Test: Test (c): inhibition of IGF-stimulated cell proliferation (BrdU incorporation)
Assay type: cell-based
Settings: inhibition of IGF-stimulated proliferation in NIH3T3 over-expressing human IGF-1 receptor
Description: The construction of murine fibroblasts (NIH3T3) over-expressing human IGF-1 receptor has been described by Lammers et al (EMBO J, 8, 1369-1375, 1989). These cells show a proliferative response to IGF-I which can be measured by BrdU incorporation into newly synthesised DNA. Compound potency was determined as causing inhibition of the IGF-stimulated proliferation in the following assay:
Compounds are initially dissolved in DMSO to 10 mM, followed by dilutions in DMEM+1% FCS+glutamine to give a range from […] in 1-0.00045% DMSO final concentration in assay well.
Exponentially growing NIH3T3/IGFR cells were harvested and seeded in complete growth medium into a flat-bottomed 96 well tissue culture grade plate (Costar 3525) at 1.2×10^4 cells per well in a volume of 100 μl.
Growth medium was carefully removed from each well using a multi-channel pipette. Wells were carefully rinsed three times with 200 μl with HBSS. 100 μl of starvation medium was added to each well and the plate was re-incubated for 24 hours.
50 μl of a 4× concentrate of test compound was added to appropriate wells. Cells were incubated for 30 minutes with compound alone before the addition of IGF. For cells treated with IGF, an appropriate volume (i.e. 25 μl) of starvation medium was added to make a final volume per well up to 200 μl followed by 25 μl of IGF-1 at 160 ng/ml (to give a final concentration of 20 ng/ml). […] The plate was re-incubated for 20 hours.
The incorporation of BrdU in the cells (after a 4 h incorporation period) was assessed using the BrdU Cell Proliferation Elisa according to the manufacturer's protocol.

| SMILES | IC50 [µM] |
| --- | --- |
| CCOc1nccnc1-c1cc([C@@H]2CCCN2c2nc(C)cc(Nc3cc(C)[nH]n3)n2)on1 [Example 1, S-2-[2-{3-(3-Ethoxypyrazin-2-yl)isoxazol-5-yl}pyrrolidin-1-yl]-6-methyl-4-(5-methyl-1H-pyrazol-3-ylamino)pyrimidine] | 0.04 |
| Cc1cc(Nc2cc(C)[nH]n2)nc(N2CCC[C@H]2c2cc(-c3cccnc3C)no2)n1 [Example 3, S-2-[2-{3-(2-Methylpyrid-3-yl)isoxazol-5-yl}pyrrolidin-1-yl]-6-methyl-4-(5-methyl-1H-pyrazol-3-ylamino)pyrimidine] | 0.006 |
| Cc1cc(Nc2cc(C)[nH]n2)nc(N2CCC[C@H]2c2cc(-c3cccnc3C#N)no2)n1 [Example 7, S-2-[2-{3-(2-Cyanopyrid-3-yl)isoxazol-5-yl}pyrrolidin-1-yl]-6-methyl-4-(5-methyl-1H-pyrazol-3-ylamino)pyrimidine] | 0.004 |
